Results reported in patent publication US11814371B2, “Heterocyclic compound” (MEDSHINE DISCOVERY INC., priority 2020, dated 2023).
Read-outs that look alike come from different tables or passages of the source.

Assays:
[1] = Pharmacokinetic test in rats after intravenous and intragastric administration (plasma, LC-MS/MS); type: in vivo; conditions: male, SD, rat; for bioavailability: read-out: Bioavailability F; for AUC(0-inf): read-out: Curve area (o-inf) AUC0-inf; for AUC(0-t): read-out: Curve area (o-t) AUC0-last; for half-life: read-out: Half-life T½ (converted); for Tmax: read-out: Peak time Tmax; for Cmax: read-out: Plasma drug concentration Cmax; for Vd: read-out: Apparent volume of distribution Vdss; for clearance: read-out: Clearance rate Cl
Protocol: Male SD rats were used as test animals, and LC-MS/MS method was used to determine the drug concentrations in plasma of rats at different times after intravenous and intragastric administration of test compounds. The pharmacokinetic behaviors of the compounds in rats were studied and the pharmacokinetic characteristics were evaluated.
2.2 Test animals: 28 healthy adult male SD rats were divided into 14 groups with 2 rats in each group. Animals were purchased from Beijing Vital River Laboratory Animal Technology Co., Ltd.
(§1) An appropriate amount of sample was weighed, and an appropriate amount of DMSO, polyoxyethylene castor oil and sterile water for injection were added in sequence according to the volume ratio of 10:10:80, then the mixture was stirred and sonicated to reach a clear state of 0.5 mg/mL for intravenous administration.
as §1, with “clear or suspension” for “clear”, “0.4” for “0.5”, “intragastric” for “intravenous”
as §1, with “3” for “0.5”
2.4 Administration: 28 male SD rats were divided into 14 groups, after fasting for one night, the intravenous administration group was administered with an administration volume of 2 mL/kg and a dose of 1 mg/kg; the intragastric administration group 1 was administered with an administration volume of 5 mL/kg and a dose of 2 mg/kg. The intragastric administration group 2 was administered with an administration volume of 10 mL/kg and a dose of 30 mg/kg.
After the compound was administered intravenously to male SD rats, 40 µL of blood was collected at 0.0833, 0.25, 0.5, 1, 2, 4, 8 and 24 hours, respectively, and placed in tubes containing 2 µL of EDTA-K2. After the compound was administered in the intragastric administration group, 40 µL of blood was collected at 0.25, 0.5, 1, 2, 4, 6, 10 and 24 hours, respectively, and placed in tubes containing 2 µL of EDTA-K2. The tubes were centrifuged at 4000 rpm for 15 minutes to separate the plasma, and stored at -60° C. Animals were allowed to eat 2 hours after administration.
LC-MS/MS method was used to determine the content of the test compounds in the plasma of rats after intravenous and intragastric administration. The linear range of the method was 2.00 - 6000 nmol/L; plasma samples were treated with acetonitrile to precipitate protein, and then analyzed.

[2] = tested on: rat DME model induced by CA-1 (100 ng); assay: In vivo pharmacodynamic study on rat DME model induced by CA-1 (retinal thickness by OCT); parameters: species or system male SD rats
Protocol: 20 rats were selected from 25 male SD rats and divided into 5 groups according to their body weight, with 4 rats in each group and 1 spare rat in each group, and all the animals were examined by optical coherence tomography before modeling, 48 hours and 72 hours after modeling, respectively. The appropriate scanning position for measurement was selected and the retinal thickness was marked. Through the changes of retinal thickness in each group, the effects of the test compounds on improving retinal edema were compared, and the active compounds were screened. The above experimental operations of modeling and inspection should follow the order of the right eye first and then the left eye.
• Species: Rat • Strain: SD rat, SPF grade • Age and weight: 7-8 weeks old, weighing 250-300 g • Sex: Male • Supplier: Zhejiang Vital River Laboratory Animal Technology Co., Ltd. • Animal certificate number: • 2.2 Molding agent • Carbonic anhydrase-1 (CA-1, Sigma) • 3. Experimental methods and procedures • 3.1 Administration and modeling
On the day of modeling, all animals were first administered the vehicle or the test compound orally, and about 4 hours later, the animals were injected with physiological saline (5 µL/eye) or CA-I (100 ng/eye) into the vitreous cavity of both eyes for modeling, and the end time of injection in the second eye was recorded as 0 hour, and the vehicle (10 % DMSO + 90 % labrasol) or the test compound was administered orally to all animals at 4±0.5 hours, 20±0.5 hours, 28±0.5 hours, 44±0.5 hours, 52±0.5 hours and 68±0.5 hours after modeling, respectively.
Before modeling, 48 hours and 72 hours after modeling, animals were first anesthetized, and then examined by optical coherence tomography (OCT), and before anesthesia, appropriate mydriatic agents were used to ensure that the pupils of animals were completely dilated, and the animals were anesthetized by a combination of intramuscular injection of Zoletil (5 mg/kg) and Xylazine solution (3 mg/kg). OCT inspection requirements are as follows: • 1) The optic disc should be placed in the center of the infrared fundus image during data collection; • 2) the retinal scan was performed in a “pozidriv” type, with the crossover point over the optic disc, and the retina was scanned at the widest length. • 3) The software tracking function was used as much as possible for comparison of retinal thickness before and after administration, and if the tracking function was not available, the eye position was adjusted as much as possible to be consistent with that before administration, and the clarity of the tomographic images was ensured as much as possible to facilitate comparison of retinal thickness before and after administration.

[3] = po, intragastric administration (group 1), nominal 2 mg/kg (actual dose in c2)
[4] = intravenous administration, nominal 1 mg/kg (actual dose in c2)
[5] = oral 75 mg/kg, 48 hours after modeling
[6] = oral 75 mg/kg, 72 hours after modeling
[7] = po, intragastric administration (group 2), nominal 30 mg/kg (actual dose in c2)

Row | Compound | bioavailability [1, 3] [%] | AUC(0-inf) [1, 3] [µM·h] | AUC(0-t) [1, 3] [µM·h] | half-life [1, 3] [min] | Tmax [1, 3] [min] | Cmax [1, 3] [nM] | Vd [1, 4] [L/kg] | clearance [1, 4] [mL/min/kg] | AUC(0-inf) [1, 4] [µM·h] | AUC(0-t) [1, 4] [µM·h] | half-life [1, 4] [min] | relief rate of retinal thickening [2, 5] [%] | relief rate of retinal thickening [2, 6] [%] | also measured
1 | COc1ccc(F)c(CNC(=O)c2cn(Cc3ccc(Cn4cc(F)ccc4=O)cc3)nc2C2COC2)c1F [Compound 1] | 15.3 | 1.34 | 1.33 | 93.6 | 30 | 1140 | 0.202 | 7.09 | 4.38 | 4.35 | 37.4 | 100 | 100 | relief rate of retinal thickening ([2]; oral 50 mg/kg, 48 hours after modeling): 19%; relief rate of retinal thickening ([2]; oral 50 mg/kg, 72 hours after modeling): 79%
2 | COc1ccc(F)c(CNC(=O)c2cn(Cc3ccc(Cn4cc(F)ccc4=O)c(F)c3)nc2C2COC2)c1F [Compound 8] | 11.2 | 0.591 | 0.584 | 94.2 | 15 | 680 | 0.188 | 12.2 | 2.62 | 2.62 | 23.5 | 84 | 116 | bioavailability [1, 7]: 54%; AUC(0-inf) [1, 7]: 42.5 µM·h; AUC(0-t) [1, 7]: 42.4 µM·h; half-life [1, 7]: 115 min; Tmax [1, 7]: 15 min; Cmax [1, 7]: 18600 nM
